Measured values from patent US20160281133A1, “STABILIZATION AND ISOLATION OF EXTRACELLULAR NUCLEIC ACIDS” (QIAGEN GMBH, priority 2013, published 2016).
Where a SMILES comes first, the peptide text is derived from it. The star is where a group is joined. Cbz = O=C(OCc1ccccc1)*; CH2F = FC*

Legend:
whole blood samples [1] = test: DNA size distribution by chip gel electrophoresis (blood cell stability/DNA release); type: cell-based, human; conditions: 20 μM in 10 ml K2E blood; day 3 and day 7
Method: To separate the blood plasma from the whole blood, the blood samples were centrifuged for 15 min at 5000 rpm, and the obtained plasma samples were again centrifuged for 10 min at 16.000×g at 4° C.
The circulating, extracellular nucleic acids were purified from the obtained plasma samples using the QIAamp® Circulating NA Kit (QIAGEN, according to the handbook). In brief: • 10 ml sample input; • lysis: 1 ml Proteinase K and 8 ml Buffer ACL (QIAGEN) • binding: 18 ml Buffer ACB (QIAGEN) • wash-steps: unchanged and according to handbook • elution in 60 μl Buffer AVE (QIAGEN)
1.3.1 Measurement of the blood cell stability/DNA release by the determination of DNA size distribution using a chip gel electrophoresis (2100 Bioanalyzer; Agilent Technologies; Inc., USA) according to manufacturer's instruction (see handbook Agilent DNA 7500 and DNA 12000 Kit Guide), but 1.5 μl instead of 1 μl sample were transferred to the wells.
Each tested caspase inhibitor was added to whole blood samples (20 μM end concentration in 10 ml blood; blood was collected into Vacutainer K2E Tubes; BD). The whole blood sample was processed as described in section 1 (plasma preparation and nucleic acid isolation).
The eluted circulating cell-free DNA was separated by size using chip gel electrophoresis (for details on the method see above). […]

[2] = in DMSO (highest concentration listed in the cell); cited from earlier work
whole blood samples [3] = test: 18S DNA duplex real time PCR assay, increase of DNA in plasma of stored blood, example 5; type: cell-based, human; conditions: 20 μM caspase inhibitor in whole blood; storage at RT

## COC(=O)C[C@H](NC(=O)[C@H](C)NC(=O)[C@@H](NC(=O)OCc1ccccc1)C(C)C)C(=O)CF [Z-Val-Ala-Asp(OMe)-FMK] (Cbz-Val-Ala-Asp(OMe)-CH2F)
Whole blood samples [1]
  ladder-like pattern of bands (release and fragmentation of genomic DNA) compared to controls: reduced ladder-like pattern
[2]
  solubility: 20 mM, add 107 μl DMSO 10 mM, add 214 μl DMSO 5 mM, add 428 μl DMSO
Whole blood samples [3]
  increase of DNA from day 0 to day 3 or 7: more prominent on day 7
